Measurements reported in US9023855B2, “Compounds” (Chiesi Farmaceutici S.p.A., priority 2011, dated 2015).

Biological target: T1, human neutrophil elastase (HNE) (Homo sapiens, UniProt P08246)
T1 construct: purchased Sigma E8140
T1 sequence (P08246 30-267): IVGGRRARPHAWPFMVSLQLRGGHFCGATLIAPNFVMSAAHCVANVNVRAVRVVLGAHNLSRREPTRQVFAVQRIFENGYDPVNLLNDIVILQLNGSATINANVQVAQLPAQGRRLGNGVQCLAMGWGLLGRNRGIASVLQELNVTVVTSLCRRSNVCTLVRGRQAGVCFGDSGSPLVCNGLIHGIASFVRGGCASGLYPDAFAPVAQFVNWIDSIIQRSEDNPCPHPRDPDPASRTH
Assay: HNE enzyme assay (fluorogenic peptide substrate MeOSuc-Ala-Ala-Pro-Val-AMC)
Format: biochemical
Conditions: human leukocyte elastase, substrate 100 μM, 25° C., 30 minutes, at least two separate experiments; read-out: HNE inhibition (IC50 values)
Protocol: Compounds of this invention were tested for potency in a human neutrophil elastase (HNE) enzyme activity assay.
Assays were performed in 96-well plates in a total assay volume of 100 μl. The final concentration of elastase enzyme (human leukocyte elastase, Sigma E8140) was 0.0036 units/well […]. The peptide substrate (MeOSuc-Ala-Ala-Pro-Val-AMC, Calbiochem #324740) was used at a final concentration of 100 μM. The final concentration of DMSO was 1% in the assay buffer (0.05M Tris.HCl, 0.1M NaCl, 0.1M CaCl2, 0.0005% brij-35, pH 7.5). The enzymatic reaction was started by addition of the enzyme and incubated at 25° C. for 30 minutes. After incubation, the reaction was stopped by addition of soybean trypsin inhibitor (Sigma T9003) at a final concentration of 50 μg/well. Fluorescence was measured using a Molecular Devices fluorescence plate reader using 380 nm excitation and 460 nm emission wavelengths.
A dose response to each compound was performed, and the effect of the compound in each experiment was expressed as a percentage inhibition of the control enzyme fluorescence. Dose response curves were plotted and compound potency (IC50) was determined. Compounds were tested in at least two separate experiments.

SMILES | IC50
COC(=O)C1=C(C)N(c2cccc(C(F)(F)F)c2)c2n[nH]c(=O)n2C1c1ccc(C#N)cc1 (stereo not shown) [Example 1, 5-(4-Cyanophenyl)-7-methyl-3-oxo-8-(3-trifluoromethylphenyl)-2,3,5,8-tetrahydro-[1,2,4]triazolo[4,3-a]pyrimidine-6-carboxylic acid methyl ester] | < 20 nM
COC(=O)C1=C(C)N(c2cccc(C(F)(F)F)c2)c2nn(CC(N)=O)c(=O)n2C1c1ccc(C#N)cc1 (stereo not shown) [Example 2, 2-Carbamoylmethyl-5-(4-cyanophenyl)-7-methyl-3-oxo-8-(3-trifluoromethylphenyl)-2,3,5,8-tetrahydro-[1,2,4]triazolo[4,3-a]pyrimidine-6-carboxylic acid methyl ester] | < 20 nM
COC(=O)C1=C(C)N(c2cccc(C(F)(F)F)c2)c2nn(CCCN(C)C)c(=O)n2C1c1ccc(C#N)cc1 (stereo not shown) [Example 3] | < 20 nM
COC(=O)C1=C(C)N(c2cccc(C(F)(F)F)c2)c2nn(Cc3ccccc3)c(=O)n2C1c1ccc(C#N)cc1 (stereo not shown) [Example 4, 2-Benzyl-5-(4-cyanophenyl)-7-methyl-3-oxo-8-(3-trifluoromethyl-phenyl)-2,3,5,8-tetrahydro-[1,2,4]triazolo[4,3-a]pyrimidine-6-carboxylic acid methyl ester] | 20 to 100 nM
C=CCn1nc2n(c1=O)C(c1ccc(C#N)cc1)C(C(=O)OC)=C(C)N2c1cccc(C(F)(F)F)c1 (stereo not shown) [Example 5, 2-Allyl-5-(4-cyanophenyl)-7-methyl-3-oxo-8-(3-trifluoromethyl-phenyl)-2,3,5,8-tetrahydro-[1,2,4]triazolo[4,3-a]pyrimidine-6-carboxylic acid methyl ester] | < 20 nM
COC(=O)C1=C(C)N(c2cccc(C(F)(F)F)c2)c2nn(C)c(=O)n2C1c1ccc(C#N)cc1 (stereo not shown) [Example 6, 5-(4-Cyanophenyl)-2,7-dimethyl-3-oxo-8-(3-trifluoromethylphenyl)-2,3,5,8-tetrahydro-[1,2,4]triazolo[4,3-a]pyrimidine-6-carboxylic acid methyl ester] | < 20 nM
CC1=C(C(=O)O)C(c2ccc(C#N)cc2)n2c(n[nH]c2=O)N1c1cccc(C(F)(F)F)c1 (stereo not shown) [Example 9, 5-(4-Cyano-phenyl)-7-methyl-3-oxo-8-(3-trifluoromethyl-phenyl)-2,3,5,8-tetrahydro-[1,2,4]triazolo[4,3-a]pyrimidine-6-carboxylic acid] | < 20 nM
CC1=C(C(=O)OCCN(C)C)C(c2ccc(C#N)cc2)n2c(n[nH]c2=O)N1c1cccc(C(F)(F)F)c1 (stereo not shown) [Example 10, 5-(4-Cyano-phenyl)-7-methyl-3-oxo-8-(3-trifluoromethyl-phenyl)-2,3,5,8-tetrahydro-[1,2,4]triazolo[4,3-a]pyrimidine-6-carboxylic acid 2-dimethylamino-ethyl ester] | < 20 nM
CC1=C(C(=O)OCCCN(C)C)C(c2ccc(C#N)cc2)n2c(n[nH]c2=O)N1c1cccc(C(F)(F)F)c1 (stereo not shown) [Example 11, 5-(4-Cyano-phenyl)-7-methyl-3-oxo-8-(3-trifluoromethyl-phenyl)-2,3,5,8-tetrahydro-[1,2,4]triazolo[4,3-a]pyrimidine-6-carboxylic acid 3-dimethylamino-propyl ester] | < 20 nM
CCNC(=O)C1=C(C)N(c2cccc(C(F)(F)F)c2)c2n[nH]c(=O)n2C1c1ccc(C#N)cc1 (stereo not shown) [Example 12, 5-(4-Cyano-phenyl)-7-methyl-3-oxo-8-(3-trifluoromethyl-phenyl)-2,3,5,8-tetrahydro-[1,2,4]triazolo[4,3-a]pyrimidine-6-carboxylic acid ethylamide] | 20 to 100 nM
COC(=O)C1=C(C)N(c2cccc(C(F)(F)F)c2)c2n[nH]c(=O)n2C1c1ccc(C#N)cc1S(C)(=O)=O (stereo not shown) [Example 13, 5-(4-Cyano-2-methanesulfonyl-phenyl)-7-methyl-3-oxo-8-(3-trifluoromethyl-phenyl)-2,3,5,8-tetrahydro-[1,2,4]triazolo[4,3-a]pyrimidine-6-carboxylic acid methyl ester] | < 20 nM
CC1=C(C#N)C(c2ccc(C#N)cc2)n2c(n[nH]c2=O)N1c1cccc(C(F)(F)F)c1 (stereo not shown) [Example 14, 5-(4-Cyano-phenyl)-7-methyl-3-oxo-8-(3-trifluoromethyl-phenyl)-2,3,5,8-tetrahydro-[1,2,4]triazolo[4,3-a]pyrimidine-6-carbonitrile] | < 20 nM
COC(=O)C1=C(C)N(c2cccc(C(F)(F)F)c2)c2nn(-c3ccc(S(C)(=O)=O)cc3)c(=O)n2C1c1ccc(C#N)cc1 (stereo not shown) [Example 15, 5-(4-Cyano-phenyl)-2-(4-methanesulfonyl-phenyl)-7-methyl-3-oxo-8-(3-trifluoromethyl-phenyl)-2,3,5,8-tetrahydro-[1,2,4]triazolo[4,3-a]pyrimidine-6-carboxylic acid methyl ester] | < 20 nM
COC(=O)C1=C(C)N(c2cccc(C(F)(F)F)c2)c2nn(CCCS(C)(=O)=O)c(=O)n2C1c1ccc(C#N)cc1 (stereo not shown) [Example 16, 5-(4-Cyano-phenyl)-2-(3-methanesulfonyl-propyl)-7-methyl-3-oxo-8-(3-trifluoromethyl-phenyl)-2,3,5,8-tetrahydro-[1,2,4]triazolo[4,3-a]pyrimidine-6-carboxylic acid methyl ester] | < 20 nM
COC(=O)C1=C(C)N(c2cccc(C(F)(F)F)c2)c2nn(Cc3ccc(S(C)(=O)=O)cc3)c(=O)n2[C@@H]1c1ccc(C#N)cc1 [Example 17, (R)-5-(4-Cyano-phenyl)-2-(4-methanesulfonyl-benzyl)-7-methyl-3-oxo-8-(3-trifluoromethyl-phenyl)-2,3,5,8-tetrahydro-[1,2,4]triazolo[4,3-a]pyrimidine-6-carboxylic acid methyl ester] | < 20 nM
COC(=O)C1=C(C)N(c2cccc(C(F)(F)F)c2)c2nn(CCCS(C)(=O)=O)c(=O)n2[C@@H]1c1ccc(C#N)cc1 [Example 18, (R)-5-(4-Cyano-phenyl)-2-(3-methanesulfonyl-propyl)-7-methyl-3-oxo-8-(3-trifluoromethyl-phenyl)-2,3,5,8-tetrahydro-[1,2,4]triazolo[4,3-a]pyrimidine-6-carboxylic acid methyl ester] | < 20 nM
COC(=O)C1=C(C)N(c2cccc(C(F)(F)F)c2)c2nn(S(=O)(=O)c3ccc(CN(C)CCN(C)C)cc3)c(=O)n2C1c1ccc(C#N)cc1 (stereo not shown) [Example 19, 5-(4-Cyano-phenyl)-2-(4-{[(2-dimethylamino-ethyl)-methyl-amino]-methyl}-benzenesulfonyl)-7-methyl-3-oxo-8-(3-trifluoromethyl-phenyl)-2,3,5,8-tetrahydro-[1,2,4]triazolo[4,3-a]pyrimidine-6-carboxylic acid methyl ester] | 20 to 100 nM
COC(=O)C1=C(C)N(c2cccc(C(F)(F)F)c2)c2nn(CCc3ccc(S(C)(=O)=O)cc3)c(=O)n2[C@@H]1c1ccc(C#N)cc1 [Example 20, (R)-5-(4-Cyano-phenyl)-2-[2-(4-methanesulfonyl-phenyl)-ethyl]-7-methyl-3-oxo-8-(3-trifluoromethyl-phenyl)-2,3,5,8-tetrahydro-[1,2,4]triazolo[4,3-a]pyrimidine-6-carboxylic acid methyl ester] | < 20 nM
COC(=O)C1=C(C)N(c2cccc(C(F)(F)F)c2)c2nn(Cc3ccc(CN(C)C)cc3)c(=O)n2C1c1ccc(C#N)cc1 (stereo not shown) [Example 21, 5-(4-Cyano-phenyl)-2-(4-dimethylaminomethyl-benzyl)-7-methyl-3-oxo-8-(3-trifluoromethyl-phenyl)-2,3,5,8-tetrahydro-[1,2,4]triazolo[4,3-a]pyrimidine-6-carboxylic acid methyl ester] | < 20 nM
COC(=O)C1=C(C)N(c2cccc(C(F)(F)F)c2)c2nn(Cc3ccc(C[N+](C)(C)C)cc3)c(=O)n2C1c1ccc(C#N)cc1 (stereo not shown) [Example 22, {4-[5-(4-Cyano-phenyl)-6-methoxycarbonyl-7-methyl-3-oxo-8-(3-trifluoromethyl-phenyl)-5,8-dihydro-[1,2,4]triazolo[4,3-a]pyrimidin-2-ylmethyl]-benzyl}-trimethyl-ammonium bromide] | < 20 nM
COC(=O)C1=C(C)N(c2cccc(C(F)(F)F)c2)c2nn(Cc3ccc(S(C)(=O)=O)cn3)c(=O)n2C1c1ccc(C#N)cc1 (stereo not shown) [Example 23, 5-(4-Cyano-phenyl)-2-(5-methanesulfonyl-pyridin-2-ylmethyl)-7-methyl-3-oxo-8-(3-trifluoromethyl-phenyl)-2,3,5,8-tetrahydro-[1,2,4]triazolo[4,3-a]pyrimidine-6-carboxylic acid methyl ester] | < 20 nM
COC(=O)C1=C(C)N(c2cccc(C(F)(F)F)c2)c2nn(CCCN3CCCC3=O)c(=O)n2C1c1ccc(C#N)cc1 (stereo not shown) [Example 24, 5-(4-Cyano-phenyl)-7-methyl-3-oxo-2-[3-(2-oxo-pyrrolidin-1-yl)-propyl]-8-(3-trifluoromethyl-phenyl)-2,3,5,8-tetrahydro-[1,2,4]triazolo[4,3-a]pyrimidine-6-carboxylic acid methyl ester] | < 20 nM
